According to patent US8436023B2, “Cyclohexyl-azetidinyl antagonists of CCR2” (Janssen Pharmaceutica N.V., priority 2010, dated 2013):

molecular target: T1, CCR2 (Homo sapiens, UniProt P41597); assay: MCP-1 Receptor Binding Assay in THP-1 Cells; conditions: 0.5 nM 125I labeled MCP-1, 2 hours at 30° C., less polar isomer tested where stated, read-out: Inhibition of MCP-1 Binding IC50, CCR2 Binding
T1 construct: host or cells: THP-1 human monocytic cells
T1 sequence (P41597 1-360 isoform P41597-2): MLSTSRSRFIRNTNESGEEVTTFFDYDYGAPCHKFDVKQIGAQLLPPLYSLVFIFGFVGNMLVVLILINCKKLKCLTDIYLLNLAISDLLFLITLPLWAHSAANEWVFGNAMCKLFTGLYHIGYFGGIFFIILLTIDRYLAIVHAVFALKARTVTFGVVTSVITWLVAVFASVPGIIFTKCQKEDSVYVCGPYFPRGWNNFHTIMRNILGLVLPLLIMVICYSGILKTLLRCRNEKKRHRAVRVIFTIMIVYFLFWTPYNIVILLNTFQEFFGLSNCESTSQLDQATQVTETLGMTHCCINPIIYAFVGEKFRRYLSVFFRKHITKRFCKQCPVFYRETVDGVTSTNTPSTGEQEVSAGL
Experimental: MCP-1 Receptor Binding Assay in THP-1 Cells
Human monocytic cell line THP-1 cells were obtained from American Type Culture Collection (Manassas, Va., USA). The THP-1 cells were grown in RPMI-1640 (RPMI: Roswell Park Memorial Institute Medium-cell culture growth media) supplemented with 10% fetal bovine serum in a humidified 5% CO2 atmosphere at 37° C. The cell density was maintained […].
THP-1 (cells were incubated with 0.5 nM ^125I labeled MCP-1 (Perkin-Elmer Life Sciences, Inc. Boston, Mass.) in the presence of varying concentrations of either unlabeled MCP-1 (R & D Systems, Minneapolis, Minn.) or test compound for 2 hours at 30° C. in a 96 well plate. Cells were then harvested onto a filter plate, dried, and 20 μL of Microscint 20 was added to each well. Plates were counted in a TopCount NXT, Microplate Scintillation & Luminescence Counter (Perkin-Elmer Life Sciences, Inc. Boston, Mass.). Blank values (buffer only) were subtracted from all values and drug treated values were compared to vehicle treated values. 1 μM cold MCP-1 was used for nonspecific binding.
Where an IC50 value was not obtained for a particular compound, the percent inhibition is provided at a test concentration of 25 μM.

| IC50 [nM] | Compound |
| --- | --- |
| 200 | Cn1cc(C2(O)CCC(N3CC(NC(=O)CNc4nn(C)c5ccc(C(F)(F)F)cc45)C3)CC2)cn1 (centres unmarked) [Example 25, N-{1-[4-Hydroxy-4-(1-methyl-1H-pyrazol-4-yl)-cyclohexyl]-azetidin-3-yl}-2-(1-methyl-5-trifluoromethyl-1H-indazol-3-ylamino)-acetamide] |
| 1400 | Cn1ccnc1C1(O)CCC(N2CC(NC(=O)CNc3nn(C)c4ccc(C(F)(F)F)cc34)C2)CC1 (centres unmarked) [Example 27, N-{1-[4-Hydroxy-4-(1-methyl-1H-imidazol-2-yl)-cyclohexyl]-azetidin-3-yl}-2-(1-methyl-5-trifluoromethyl-1H-indazol-3-ylamino)-acetamide] |
| 13 | CCOC(=O)C1CCC(N2CC(NC(=O)CNc3nn(C)c4ccc(C(F)(F)F)cc34)C2)CC1 (centres unmarked) [Example 32, 4-{3-[2-(1-Methyl-5-trifluoromethyl-1H-indazol-3-ylamino)-acetylamino]-azetidin-1-yl}-cyclohexane carboxylic acid ethyl ester] |
| 750 | CC(C)(C)NC(=O)n1nc(NCC(=O)NC2CN(C3CCC(C#N)CC3)C2)c2cc(C(F)(F)F)ccc21 (centres unmarked) [Example 86, 3-({[1-(4-Cyano-cyclohexyl)-azetidin-3-ylcarbamoyl]-methyl}-amino)-5-trifluoromethyl-indazole-1-carboxylic acid tert-butylamide] |
| 380 | Cn1nc(NCC(=O)NC2CN(C3CCC(C(N)=O)CC3)C2)c2cc(C(F)(F)F)ccc21 (centres unmarked) [Example 39, 4-{3-[2-(1-Methyl-5-trifluoromethyl-1H-indazol-3-ylamino)-acetylamino]-azetidin-1-yl}-cyclohexane carboxylic acid amide] |
| 180 | CCc1ncc(C2(O)CCC(N3CC(NC(=O)CNc4nn(C)c5ccc(C(F)(F)F)cc45)C3)CC2)s1 (centres unmarked) [Example 23, N-{1-[4-(2-Ethyl-thiazol-5-yl)-4-hydroxy-cyclohexyl]-azetidin-3-yl}-2-(1-methyl-5-trifluoromethyl-1H-indazol-3-ylamino)-acetamide] |
| 27 | CCOCC1CCC(N2CC(NC(=O)CNc3nn(C)c4ccc(C(F)(F)F)cc34)C2)CC1 (centres unmarked) [Example 34, N-[1-(4-Ethoxymethyl-cyclohexyl)-azetidin-3-yl]-2-(1-methyl-5-trifluoromethyl-1H-indazol-3-ylamino)-acetamide] |
| 56 | Cn1nc(NCC(=O)NC2CN(C3CCC(O)(c4cccnc4)CC3)C2)c2cc(C(F)(F)F)ccc21 (centres unmarked) [Example 19, N-[1-(4-Hydroxy-4-pyridin-3-yl-cyclohexyl)-azetidin-3-yl]-2-(1-methyl-5-trifluoromethyl-1H-indazol-3-ylamino)-acetamide] |
| 150 | Cn1nc(NCC(=O)NC2CN(C3CCC(C#N)CC3)C2)c2cc(C(F)(F)F)ccc21 (centres unmarked) [Example 38, N-[1-(4-Cyano-cyclohexyl)-azetidin-3-yl]-2-(1-methyl-5-trifluoromethyl-1H-indazol-3-ylamino)-acetamide] |
| 146 | Cn1nc(NCC(=O)NC2CN(C3CCC(O)(c4ncco4)CC3)C2)c2cc(C(F)(F)F)ccc21 (centres unmarked) [Example 26, N-[1-(4-Hydroxy-4-oxazol-2-yl-cyclohexyl)-azetidin-3-yl]-2-(1-methyl-5-trifluoromethyl-1H-indazol-3-ylamino)-acetamide] |

The next lines start with the molecule.

| Compound | IC50 [nM] |
| --- | --- |
| CC(C)C1CCC(N2CC(NC(=O)CNc3noc4ccc(OC(F)(F)F)cc34)C2)CC1 (centres unmarked) [Example 17, N-[1-(4-Isopropyl-cyclohexyl)-azetidin-3-yl]-2-(5-trifluoromethoxy-benzo[d]isoxazol-3-ylamino)-acetamide] | 750 |
| O=C(CNc1n[nH]c2ccc(C(F)(F)F)cc12)NC1CN(C2CCC(O)(c3cncs3)CC2)C1 (centres unmarked) [Example 42, N-[1-(4-Hydroxy-4-thiazol-5-yl-cyclohexyl)-azetidin-3-yl]-2-(5-trifluoromethyl-1H-indazol-3-ylamino)-acetamide] | 16 |
| Cc1cnc(C2(O)CCC(N3CC(NC(=O)CNc4nn(CCO)c5ccc(C(F)(F)F)cc45)C3)CC2)s1 (centres unmarked) [Example 77, 2-[1-(2-Hydroxy-ethyl)-5-trifluoromethyl-1H-indazol-3-ylamino]-N-{1-[4-hydroxy-4-(5-methyl-thiazol-2-yl)-cyclohexyl]-azetidin-3-yl}-acetamide] | 31 |
| COc1ccc(C2(O)CCC(N3CC(NC(=O)CNc4nn(C)c5ccc(C(F)(OC)C(F)(F)F)cc45)C3)CC2)cn1 (centres unmarked) [Example 102, N-{1-[4-Hydroxy-4-(6-methoxy-pyridin-3-yl)-cyclohexyl]-azetidin-3-yl}-2-[1-methyl-5-(1,2,2,2-tetrafluoro-1-methoxy-ethyl)-1H-indazol-3-ylamino]-acetamide] | 33 |
| COC(F)(c1ccc2c(c1)c(NCC(=O)NC1CN(C3CCC(O)(c4ccc(C)nc4)CC3)C1)nn2C)C(F)(F)F (centres unmarked) [Example 103, N-{1-[4-Hydroxy-4-(6-methyl-pyridin-3-yl)-cyclohexyl]-azetidin-3-yl}-2-[1-methyl-5-(1,2,2,2-tetrafluoro-1-methoxy-ethyl)-1H-indazol-3-ylamino]-acetamide] | 22 |
| Cc1ccc(C2(O)CCC(N3CC(NC(=O)CNc4nn(C)c5ccc(C(O)C(F)(F)F)cc45)C3)CC2)cn1 (centres unmarked) [Example 63, N-{1-[4-Hydroxy-4-(6-methyl-pyridin-3-yl)-cyclohexyl]-azetidin-3-yl}-2-[1-methyl-5-(2,2,2-trifluoro-1-hydroxy-ethyl)-1H-indazol-3-ylamino]-acetamide] | 3400 |
| O=C(CNc1noc2ccc(C(F)(F)F)cc12)NC1CN(C2CCC(c3ccc4c(c3)OCO4)CC2)C1 (centres unmarked) [Example 1, N-[1-(4-Benzo[1,3]dioxol-5-yl-cyclohexyl)-azetidin-3-yl]-2-(5-trifluoromethyl-benzo[d]isoxazol-3-ylamino)-acetamide] | 36 |
| O=C(CNc1nn(CCO)c2ccc(C(F)(F)F)cc12)NC1CN(C2CCC(O)(c3cncs3)CC2)C1 (centres unmarked) [Example 76] | 29 |
| COc1cccc(C2(O)CCC(N3CC(NC(=O)CNc4nn(Cc5ccccc5)c5ccc(C(F)(F)F)cc45)C3)CC2)n1 (centres unmarked) [Example 96, 2-(1-Benzyl-5-trifluoromethyl-1H-indazol-3-ylamino)-N-{1-[4-hydroxy-4-(6-methoxy-pyridin-2-yl)-cyclohexyl]-azetidin-3-yl}-acetamide] | 270 |
| O=C(CNc1noc2ccc(C(F)(F)F)cc12)NC1CN(C2CCC(C3CCCCC3)CC2)C1 (centres unmarked) [Example 5, N-(1-Bicyclohexyl-4-yl-azetidin-3-yl)-2-(5-trifluoromethyl-benzo[d]isoxazol-3-ylamino)-acetamide] | 330 |
| CC(C)(C)NC(=O)n1nc(NCC(=O)NC2CN(C3CCC(O)(c4nccs4)CC3)C2)c2cc(C(F)(F)F)ccc21 (centres unmarked) [Example 80, 3-({[1-(4-Hydroxy-4-thiazol-2-yl-cyclohexyl)-azetidin-3-ylcarbamoyl]-methyl}-amino)-5-trifluoromethyl-indazole-1-carboxylic acid tert-butylamide] | 75 |
| Cc1ccc(C2(O)CCC(N3CC(NC(=O)CNc4nn(C)c5ccc(C(F)(F)F)cc45)C3)CC2)cn1 (centres unmarked) [Example 30, N-{1-[4-Hydroxy-4-(6-methyl-pyridin-3-yl)-cyclohexyl]-azetidin-3-yl}-2-(1-methyl-5-trifluoromethyl-1H-indazol-3-ylamino)-acetamide] | 7.5 |
| Cc1ccc(C2(O)CCC(N3CC(NC(=O)CNc4nn(CCO)c5ccc(C(F)(F)F)cc45)C3)CC2)cn1 (centres unmarked) [Example 74, 2-[1-(2-Hydroxy-ethyl)-5-trifluoromethyl-1H-indazol-3-ylamino]-N-{1-[4-hydroxy-4-(6-methyl-pyridin-3-yl)-cyclohexyl]-azetidin-3-yl}-acetamide] | 55 |
| COc1ccc(C2CCC(N3CC(NC(=O)CNc4nn(S(C)(=O)=O)c5ccc(C(F)(F)F)cc45)C3)CC2)cn1 (centres unmarked) [Example 100, 2-(1-Methanesulfonyl-5-trifluoromethyl-1H-indazol-3-ylamino)-N-{1-[4-(6-methoxy-pyridin-3-yl)-cyclohexyl]-azetidin-3-yl}-acetamide] | 3700 |
| CCOC(=O)C1CCC(N2CC(NC(=O)CNc3nn(C)c4ccc(C(O)C(F)(F)F)cc34)C2)CC1 (centres unmarked) [Example 60, 4-(3-{2-[1-Methyl-5-(2,2,2-trifluoro-1-hydroxy-ethyl)-1H-indazol-3-ylamino]-acetylamino}-azetidin-1-yl)-cyclohexanecarboxylic acid ethyl ester] | 2090 |
| CCOc1ccc(C2(O)CCC(N3CC(NC(=O)CNc4nn(C(N)=O)c5ccc(C(F)(F)F)cc45)C3)CC2)cn1 (centres unmarked) [Example 83, 3-[({1-[4-(6-Ethoxy-pyridin-3-yl)-4-hydroxy-cyclohexyl]-azetidin-3-ylcarbamoyl}-methyl)-amino]-5-trifluoromethyl-indazole-1-carboxylic acid amide] | 22 |
